Patent US9101588B2, “Composition for lowering blood uric acid level” (TAISHO PHARMACEUTICAL CO., LTD., priority 2009, dated 2015)

How the values were obtained:
Format in all cases: in vivo, human
[1] = system: subjects thought to have hyperuricemia; assay: Test Example 3: randomized double blind test, serum uric acid level and uric acid clearance value, powder of Example 1 vs placebo, 14 days
Method: (§1) Sixteen subjects who were 20 years old or older and thought to have hyperuricemia under the following conditions were grouped into 2 each consisting of 8 subjects. A placebo and the powder prepared in Example 1 were administered to the respective groups twice a day by 2.04 g (2000 mg in terms of taurine amount) in a single dose for 14 days. The change in the uric acid level was checked by a randomized double blind test.
Before this test was started, screening tests were conducted twice. Subjects who met the condition of Condition below in the first screening test were subjected to the second screening. Subjects who met Condition again in the second screening test were subjected to this test. Furthermore, in this test, in order to check the change in a uric acid clearance value that would influence the change in the uric acid level, the uric acid level and the uric acid clearance value were measured four times, that is, 1 hour before administration, 1 hour after administration, 2 hours after administration, and 3 hours after administration when the taurine administration was started as well as similarly four times when the administration was completed. It should be noted that in order to make conditions equal between when the administration was started and when completed, the subjects were stayed in a hospital 3 days and 2 nights before each measurement, and had the same meals.
Incidentally, one case which was assigned to the taurine-administered group was terminated because another disease occurred during the 14-day administration period.
Condition: serum uric acid level was 7.0 mg/dL or above but below 9.0 mg/dL
In addition, as in Test Examples 1 and 2, each administration group was sub-grouped with a benchmark of the uric acid level of 7.0 mg/dL at the start. The percentage of change in the uric acid level was compared in each group.
Next, the change (ratio of change) in the uric acid clearance value, when the administration was started, representing uric acid-excretion efficiency was compared between the administration groups.
Moreover, the change (ratio of change) in the uric acid clearance value when the administration was completed was also compared between the administration groups.

[2] = system: subjects thought to have hyperuricemia; assay: as above; details: 1 hour before administration at start vs 3 hours before administration at completion, 2000 mg taurine twice a day, FIG. 1
[3] = system: subjects of Test Examples 1 to 3; assay: Taurine-administered cases of Test Examples 1 to 3 summed, degree of uric acid level changed; details: for uric acid level degree changed MAX / uric acid level degree changed MEDIAN / uric acid level degree changed MIN / uric acid level degree changed MEAN: start to completion; for mean value of uric acid level decreased by / median of uric acid level decreased by: Table 6
Method: Next, degrees of serum uric acid levels changed before and after the administration in the taurine-administered cases of Test Examples 1 to 3 were lined up in the order of subjects having higher levels before the administration.
Moreover, the taurine-administered cases of Test Examples 1 to 3 were summed and sub-grouped with a benchmark of the uric acid level of 7.0 mg/dL at the start. Degrees of uric acid levels changed were compared between the sub-groups.

[4] = system: subjects thought to have lifestyle diseases; assay: Test Example 1: randomized double blind test, change in uric acid level, powder of Example 1 vs placebo, 14 days; details: for uric acid level degree changed MAX / uric acid level degree changed MEDIAN / uric acid level degree changed MIN / uric acid level degree changed MEAN: start to completion
Method: as §1, with “Forty” for “Sixteen”, “lifestyle diseases” for “hyperuricemia”, “20” for “8”
Before this test was started, screening tests were conducted twice. Subjects who met all the conditions of Conditions 1 to 3 below in the first screening test were subjected to the second screening. Further, since the amount of taurine in the body seemed to influence the result of this test, subjects who met Condition 4 in addition to Conditions 1 to 3 in the second screening test were subjected to this test. In each administration group, the result was sub-grouped with a benchmark of the uric acid level of 7.0 mg/dL which served as the index for hyperuricemia. The uric acid levels were compared between the groups.
Incidentally, one case which was assigned to the taurine-administered group was terminated because another disease occurred before the administration was started.
Condition 1: LDL cholesterol was 140 mg/dL or above
Condition 2: triglyceride was 150 mg/dL or above but below 400 mg/dL
Condition 3: total cholesterol was 220 mg/dL or above
Condition 4: an amount of urinary taurine excreted (in urine collected for 24 hours) was 1500 μmol or below
In addition, each administration group was sub-grouped with a benchmark of the uric acid level of 7.0 mg/dL at the start, and the percentage of change in the uric acid level was compared in each group.

[5] = start level 7.0 mg/dL or above, 4 cases
[6] = start level below 7.0 mg/dL, 3 cases
[7] = start level 7.0 mg/dL or above, 60 cases, at completion
[8] = start level 7.0 mg/dL or above, 60 cases, at start
[9] = start level 7.0 mg/dL or above, 60 cases
[10] = start level below 7.0 mg/dL, 87 cases, at completion
[11] = start level below 7.0 mg/dL, 87 cases, at start
[12] = start level below 7.0 mg/dL, 87 cases
[13] = subjects with uric acid level 7.0 mg/dL or above
[14] = subjects with uric acid level below 7.0 mg/dL
[15] = start level 7.0 mg/dL or above, 8 cases
[16] = start level 7.0 mg/dL or above, 8 cases, at completion (14 days)
[17] = start level 7.0 mg/dL or above, 8 cases, at start
[18] = start level below 7.0 mg/dL, 11 cases
[19] = start level below 7.0 mg/dL, 11 cases, at completion (14 days)
[20] = start level below 7.0 mg/dL, 11 cases, at start
[21] = subjects with uric acid level 7.0 mg/dL or above, Table 1
[22] = subjects with uric acid level below 7.0 mg/dL, Table 1

NCCS(=O)(=O)O [Taurine, aminoethylsulfonic acid]
Change in uric acid level: subjects who did not show decrease [1, 5]: 0 (0.0) ( ): %
Change in uric acid level: subjects who showed decrease [1, 5]: 4 (100.0) ( ): %
Change in uric acid level: subjects who showed decrease ([1]; start level 7.0 mg/dL or above, 4 cases, listed as taurine): 4 ( ): %
Change in uric acid level: subjects who did not show decrease [1, 6]: 1 (33.3) ( ): %
Change in uric acid level: subjects who showed decrease [1, 6]: 2 (66.7) ( ): %
uric acid clearance value, mean ratio of change (increase) ([1]; when the administration was completed, 2 hours after the administration, FIG. 3): ≥ 30%
uric acid clearance value, mean ratio of change (increase) ([1]; when the administration was completed, 3 hours after the administration, FIG. 3): ≥ 20%
uric acid clearance value, mean ratio of change (increase) ([1]; when the administration was started, 2 hours after the administration, FIG. 2): ≥ 40%
uric acid clearance value, mean ratio of change (increase) ([1]; when the administration was started, 3 hours after the administration, FIG. 2): ≥ 30%
mean value of serum uric acid level decreased by [2]: 0.53 mg/dL
two-sample t-test estimation: difference in degree changed between sub-groups ([3]; 7.0 mg/dL or above vs below 7.0 mg/dL, 95% CI −0.69 to −0.30, P < 0.001): −0.49[−0.69 mg/dL
uric acid level after oral administration (conclusion) ([3]; results of Test Examples 1 to 3): significant decrease
uric acid level MAX [3, 7]: 10.6 mg/dL
uric acid level MEAN [3, 7]: 7.33 mg/dL
uric acid level MEDIAN [3, 7]: 7.35 mg/dL
uric acid level MIN [3, 7]: 4.6 mg/dL
uric acid level MAX [3, 8]: 10.8 mg/dL
uric acid level MEDIAN [3, 8]: 7.80 mg/dL
uric acid level MIN [3, 8]: 7.0 mg/dL
uric acid level MEAN ([3]; start level 7.0 mg/dL or above, 60 cases, at start, Test Examples 1 to 3 summed): 7.95 mg/dL
uric acid level degree changed MAX [3, 9]: 0.7 mg/dL
uric acid level degree changed MEDIAN [3, 9]: -0.60 mg/dL
uric acid level degree changed MIN [3, 9]: -2.6 mg/dL
uric acid level degree changed MEAN ([3]; start level 7.0 mg/dL or above, 60 cases, one-sample t-test P < 0.001): -0.62 mg/dL
uric acid level MAX [3, 10]: 7.6 mg/dL
uric acid level MEAN [3, 10]: 5.54 mg/dL
uric acid level MEDIAN [3, 10]: 5.5 mg/dL
uric acid level MIN [3, 10]: 1.1 mg/dL
uric acid level MAX [3, 11]: 6.9 mg/dL
uric acid level MEAN [3, 11]: 5.67 mg/dL
uric acid level MEDIAN [3, 11]: 5.8 mg/dL
uric acid level MIN [3, 11]: 0.8 mg/dL
uric acid level degree changed MAX [3, 12]: 1.0 mg/dL
uric acid level degree changed MEDIAN [3, 12]: -0.1 mg/dL
uric acid level degree changed MIN [3, 12]: -1.6 mg/dL
uric acid level degree changed MEAN ([3]; start level below 7.0 mg/dL, 87 cases, one-sample t-test P = 0.028): -0.13 mg/dL
mean value of uric acid level decreased by [3, 13]: 0.62 mg/dL
median of uric acid level decreased by [3, 13]: 0.60 mg/dL
mean value of uric acid level decreased by [3, 14]: 0.13 mg/dL
median of uric acid level decreased by [3, 14]: 0.1 mg/dL
Change in uric acid level: subjects who did not show decrease [4, 15]: 0 (0.0) ( ): %
Change in uric acid level: subjects who showed decrease [4, 15]: 8 (100.0) ( ): %
uric acid level MAX [4, 16]: 8.3 mg/dL
uric acid level MEAN [4, 16]: 7.36 mg/dL
uric acid level MEDIAN [4, 16]: 7.50 mg/dL
uric acid level MIN [4, 16]: 6.4 mg/dL
uric acid level MAX [4, 17]: 9.1 mg/dL
uric acid level MEDIAN [4, 17]: 8.30 mg/dL
uric acid level MIN [4, 17]: 7.0 mg/dL
uric acid level MEAN ([4]; start level 7.0 mg/dL or above, 8 cases, at start, 2000 mg taurine twice a day, 14 days): 8.11 mg/dL
Change in uric acid level: subjects who showed decrease ([4]; start level 7.0 mg/dL or above, 8 cases, listed as taurine): 8 ( ): %
uric acid level degree changed MAX [4, 15]: -0.3 mg/dL
uric acid level degree changed MEDIAN [4, 15]: -0.70 mg/dL
uric acid level degree changed MIN [4, 15]: -1.3 mg/dL
uric acid level degree changed MEAN ([4]; start level 7.0 mg/dL or above, 8 cases, one-sample t-test P < 0.001): -0.75 mg/dL
two-sample t-test estimation: difference in degree changed, taurine group vs placebo group ([4]; start level 7.0 mg/dL or above, 95% CI −1.42 to −0.15, P = 0.020): −0.78[−1.42 mg/dL
Change in uric acid level: subjects who did not show decrease [4, 18]: 6 (54.5) ( ): %
Change in uric acid level: subjects who showed decrease [4, 18]: 5 (45.5) ( ): %
uric acid level MAX [4, 19]: 6.5 mg/dL
uric acid level MEAN [4, 19]: 5.49 mg/dL
uric acid level MEDIAN [4, 19]: 5.9 mg/dL
uric acid level MIN [4, 19]: 1.1 mg/dL
uric acid level MAX [4, 20]: 6.8 mg/dL
uric acid level MEAN [4, 20]: 5.54 mg/dL
uric acid level MEDIAN [4, 20]: 5.9 mg/dL
uric acid level MIN [4, 20]: 0.8 mg/dL
uric acid level degree changed MAX [4, 18]: 0.5 mg/dL
uric acid level degree changed MEDIAN [4, 18]: 0.1 mg/dL
uric acid level degree changed MIN [4, 18]: -0.9 mg/dL
uric acid level degree changed MEAN ([4]; start level below 7.0 mg/dL, 11 cases, one-sample t-test P = 0.747): -0.05 mg/dL
two-sample t-test estimation: difference in degree changed, taurine group vs placebo group ([4]; start level below 7.0 mg/dL, 95% CI −0.44 to 0.18, P = 0.386): −0.13[−0.44 mg/dL
mean value of uric acid level decreased by [4, 21]: 0.75 mg/dL
median of uric acid level decreased by [4, 21]: 0.70 mg/dL
mean value of uric acid level decreased by [4, 22]: 0.05 mg/dL
median of uric acid level increased by [4, 22]: 0.1 mg/dL
two-sample t-test estimation: difference in degree changed between sub-groups ([4]; taurine group, 7.0 mg/dL or above vs below 7.0 mg/dL, 95% CI −1.09 to −0.31, P = 0.001): −0.70[−1.09 mg/dL
